Laboratory results published in ChEMBL document CHEMBL3507680, “University of Dundee, Gates Library screen for HepG2 cell viability”.

Experiment: Human HepG2 cell viability assay in 384 well format
Format: toxicity, cell-based
Design: dose 125 nL, time 70.5 hour; cytotoxicity at 70.5 h: concentration not given beside the values
Conditions: HepG2 cells, read-out: Inhibition

Row | SMILES | cytotoxicity at 70.5 h [%]
1 | Cc1cc(N)cc(C2CN(Cc3cc[nH]n3)CCO2)n1 (centres undefined) | -6.43
2 | O=C1CO[C@H]2CN(Cc3ccccc3Br)C[C@@H]2N1 | 20.8
3 | Cc1ccccc1CC(=O)N(C)CC1(O)CCCN(c2ccccn2)C1 (centres undefined) | -5.53
4 | CN(CC1(O)CCCN(c2ccccn2)C1)C(=O)CCc1cccs1 (centres undefined) | -7.41
5 | Cn1ccnc1CN1CC[C@H](O)[C@@H](n2ccc(=O)[nH]c2=O)CC1 | -3.14
6 | CN(CC1(O)CCN(c2ccccn2)C1)C(=O)Cc1ccsc1 (centres undefined) | -6.86
7 | CC(C)(C)CC(=O)N1CCC(c2nn(CCN)c3nccnc23)C1 (centres undefined) | -4.08
8 | CCn1ncc(CN2C[C@@H]3CCCN3C[C@@H]2CCSC)c1C | -6.31
9 | CCn1ncc(CN2C[C@@H]3CCCN3C[C@H]2CCSC)c1C | 1.32
10 | CCc1cc(C(F)(F)F)c2c(C3CCCN(C(=O)COC)C3)noc2n1 (centres undefined) | -4.44
11 | CN(C)C(=O)CN1CCCC(c2cncc(-c3cccc(Cl)c3)n2)C1 (centres undefined) | -1.23
12 | CN1CCC(CN(C)C(=O)c2cc(C3CCCN3C)ccn2)CC1 (centres undefined) | -6.76
13 | Cc1nc(Nc2ncccn2)cc(C2CN(C(=O)c3cccnc3)C2)n1 | -8.6
14 | Cc1cc(C(F)(F)F)c2c(C3CCCN(C(=O)C4CC4)C3)noc2n1 (centres undefined) | -8.63
15 | Cc1nc(Nc2nnc(C)s2)cc(C2CCCN2S(C)(=O)=O)n1 (centres undefined) | -1.79
16 | Cn1ccc2ccnc(CC3CN(C(=O)c4cscn4)C3)c21 | -2.15
17 | CNC(=O)C1CN(Cc2c[nH]cn2)CCN(C2CCOCC2)C1 (centres undefined) | 14.9
18 | CN1CCCC(Cc2cncc(C(=O)NC3CC3)c2)C1 (centres undefined) | -6.9
19 | CCSCCOC(=O)CCCc1ccc2c(c1)CC(=O)N2 | -12.3
20 | O=C(C1CCCC1)N1CCC(C(O)c2ccc(F)cc2)CC1 (centres undefined) | -6.02
21 | CCOC(=O)CCCc1ccc2c(c1)CC(=O)N2 | -18.2

Row | SMILES | cytotoxicity at 70.5 h [%]
22 | COC(=O)C1(NCc2nc(C)c(C)o2)CCC(C)CC1 (centres undefined) | -8.62
23 | Cc1cc(C(=O)NCC2SCCc3ccccc32)no1 (centres undefined) | -14.4
24 | O=C(NCC1SCCc2ccccc21)c1cscn1 (centres undefined) | -13.5
25 | Cn1cc(C(=O)Nc2cccc(-c3ccc4c(c3)CCO4)n2)ccc1=O | 12
26 | CCC(O)CN(Cc1cccc(C(=O)N(C)C)c1)c1ccccc1 (centres undefined) | -1.87
27 | CC(O)CN(Cc1cccc(C(=O)N(C)C)c1)c1ccccc1 (centres undefined) | -3.2
28 | Cc1cc(CN(C)Cc2cnc3c(c2)c(C)nn3C)no1 | 8.45
29 | Cn1cc(C2(C)CN(C(=O)COc3ccccc3F)CCO2)cn1 (centres undefined) | -4.09
30 | COc1ccccc1CC1CCCN(C(=O)c2n[nH]c3c2CCC3)C1 (centres undefined) | -3.07
31 | COc1ccc(Cl)cc1CCNC(=O)N(C)CC1CCOC1 (centres undefined) | -1.13
32 | CCN(CC)C(=O)C1(NCc2nc(C)c(C)o2)CCCCC1 | -4.63
33 | O=S(=O)(NCCCn1cccn1)c1ccc2c(c1)CCC2 | -5.82
34 | Cc1cccc(C(C)C)c1NC(=O)NCCN(C(C)C)C(C)C | -4.96
35 | CC(C)CNC(=O)c1sccc1-n1cnnn1 | -7.28
36 | O=S(=O)(NCCCn1cncn1)c1ccc2c(c1)OCCO2 | -3.62
37 | OC(CNCc1nnc2ccccn12)c1ccc2c(c1)OCO2 (centres undefined) | -8
38 | OC(CNCCc1nnc2ccccn12)c1ccc(F)c(F)c1 (centres undefined) | -6.79
39 | CC(CN1CCOC1=O)NC(=O)c1ccccc1Oc1ccccc1 (centres undefined) | 27.1
40 | CCNC(=O)c1ccc(NC(=O)N(C)Cc2cc(C)on2)cc1 | -4.32
41 | CC(OCC1CC1)C(=O)NCCC(=O)Nc1ccccn1 (centres undefined) | -7.55
42 | CC(CN1CCOCC1)NC(=O)N1CCN(S(C)(=O)=O)CC1 (centres undefined) | 27.9

Row | SMILES | cytotoxicity at 70.5 h [%]
43 | O=S(=O)(c1cc(F)ccc1N1CC(n2cccn2)C1)C(F)(F)F | -0.145
44 | COc1ccc(OCCNC(=O)CN(C)Cc2nnc(C)n2C)cc1 | 29.6
45 | O=C(Nc1cccc(N2CCCC2)c1)N[C@H](CCO)c1ccccc1 | 2.92
46 | CC1CCC(O)(CSc2nnnn2C)CC1 (centres undefined) | -3.28
47 | Cc1ccc(CNC(=O)c2ccc(=O)n(C)n2)c(OCC2CC2)c1 | -4.46
48 | CCc1nnc(CS(=O)(=O)c2ccc(C)cc2)n1C | -0.707
49 | CC(CN1CCOC1=O)NC(=O)c1cccc2cc[nH]c12 (centres undefined) | -3.45
50 | Clc1snnc1CN(Cc1cccs1)C1CC1 | -5.36
51 | CN(Cc1cccs1)Cc1nnsc1Cl | -4.68
52 | CCC1(CC)CC(=O)N(CC(O)c2cc(F)ccc2F)C1=O (centres undefined) | -4.77
53 | Clc1ccc2c(c1)C=C(CNC1CCc3ncnn3C1)CO2 (centres undefined) | -7.55
54 | CCc1noc(C(C)N2CCc3c(ncn3C3CC3)C2)n1 (centres undefined) | 28.1
55 | CC(c1nc(C2CC2)no1)N1CCc2c(ncn2C)C1 (centres undefined) | 0.478
56 | CC(OCC1CC1)C(=O)Nc1cccc(C(=O)Nc2ccncc2)c1 (centres undefined) | -10.9
57 | COc1ccc2c(c1)OCC(CNC1CCc3nc(C)nn3C1)=C2 (centres undefined) | -8.64
58 | COc1cc(NC(=O)N(C)C(C2CC2)C2CC2)ncn1 | -3.68
59 | CN(C1CCCCC1)S(=O)(=O)N1CCN(Cc2ccco2)CC1 | -7.86
60 | CN1CCC(N(Cc2ccccc2)C(=O)c2ccn3ccnc3c2)CC1 | -2.58
61 | CN(C)c1ccc(NC(=O)c2cccc(N(C)C)c2)nc1 | 15.4
62 | NC1(c2nc(-c3ccccc3)cc(=O)[nH]2)CCCCC1 | -10.8
63 | O=C(CNC(=O)C1CC1)Nc1c(F)cccc1Oc1ccccc1 | -3.31

Row | SMILES | cytotoxicity at 70.5 h [%]
64 | O=C(CNC(=O)Nc1c(F)cccc1Oc1ccccc1)NC1CC1 | -9.17
65 | COCCN(C(=O)c1ccoc1C)c1ccc(C#N)cc1 | -4.2
66 | O=C(NCCc1nncn1C1CC1)C1SCCc2ccccc21 (centres undefined) | -7.17
67 | Cc1nc(C(C)(C)NCc2nnc(C(C)C)o2)sc1C | 1.69
68 | CC(=O)N1CC(C)CN(Cc2ccon2)c2ccccc21 (centres undefined) | -4.58
69 | CC(O)CCN(C)S(=O)(=O)Cc1ccc(Cl)c(Cl)c1 (centres undefined) | -3.92
70 | CC(O)CCN(C)S(=O)(=O)Cc1ccc(Br)cc1 (centres undefined) | 23.3
71 | COc1cccc(/C=C/CCN2CCC(C(=O)N3CCCC3)CC2)c1 | 3.93
72 | CC(C)N(C)S(=O)(=O)N1CCN(Cc2ccco2)CC1 | -5.12
73 | Cc1ccccc1CN1CCCN(S(=O)(=O)N(C)C2CCCCC2)CC1 | -7.92
74 | CC(C)c1ccc(OCCC(=O)N(C)CC(=O)N(C)C)cc1 | 16
75 | COc1ccccc1CC(NC(=O)N1CCC[C@@H]1CO)C(C)C (some centres undefined) | -6.32
76 | CN(C1CCCCC1)S(=O)(=O)N1CCN(Cc2ccon2)CC1 | -9.52
77 | CCN(CC)CCn1cc(NC(=O)c2ccccc2OC)cn1 | -12.2
78 | CC1COCCN1C(=O)c1ccc(=O)n(Cc2ccccc2)n1 (centres undefined) | -4.29
79 | O=C(NCCOc1ccccc1)c1ccc2c(c1)C(=O)NC2=O | 3.38
80 | COC(=O)c1ccc(N2CCN(C(=O)C3CC3)C(C)C2)cc1 (centres undefined) | -5.06
81 | CCOCCCOC(=O)c1ccc2c(c1)[nH]c(=O)n2C | 18.6
82 | O=C(NCc1nncn1C1CC1)C1(c2ccccc2)CCOCC1 | -6.33
83 | O=C(NCc1nncn1C1CC1)C1(c2ccc(F)cc2)CCCC1 | 14.3
84 | CC(c1ncc(C(C)(C)C)o1)N1CCN(c2ccncc2)CC1 (centres undefined) | -2.28
